Values after ≈ are worked out from the molar mass of the structure shown. Read-outs that look alike come from different tables or passages of the source.
Tests used:
[1] = test system: S. aureus, MRSA 1A-218, 1A-318, 1B-374, 1B-315, 1B-185, 1B387 and MSSA ATCC-6538, ATCC-29213; test: MIC by standard microdilution method against S. aureus (MRSA and MSSA strains); type: cell-based; details: Staphylococcus aureus
Method: (§1) A standard microdilution method (NCCLS, 2000; Document M7-A5) was used to determine the minimum inhibitory concentrations (MICs) against S. aureus, methicillin-resistant strains (MRSA); 1A-218, 1A-318, 1B-374, 1B-315, 1B-185, 1B387 (Simor et al. 1999 Can Commun Dis Rep; 25:105-108) and methicillin-sensitive strains (MSSA); ATCC-6538 and ATCC-29213. The MICs of some compounds were also determined against other Gram-positive bacteria: Enterococcus faecium (ATCC 51559), Enterococcus faecalis (ATCC-51299, ATCC-29212) and Staphylococcus epidermidis (ATCC-35983).
(§2) Mueller-Hinton broth (MHB) is recommended as the medium of choice for susceptibility testing of commonly isolated, rapidly growing aerobic organisms such as the Gram-positive bacteria included in this study. A “cation-adjusted Mueller-Hinton broth” (Ca-MHB) was prepared by first preparing standard MHB from a dehydrated base as recommended by the manufacturer.
(§3) Single colonies from fresh agar plates of the different bacterial cultures were sub-cultured overnight in 3 ml of Tryptic soy broth (TSB) at 37° C. with shaking at 250 RPM. After 18-20 hours of incubation, the absorbance at λ=600 nm (OD600) were determined for each culture and adjusted to a final OD600=0.1 (4.2×10^7 cfu/ml). Bacterial suspensions were then diluted 1:200 in sterile Ca-MHB for the in vitro susceptibility test, with each well of the microtitre plate containing approximately 2×10^5 cfu/ml.
(§4) Stock solutions of the different test compounds were prepared at concentrations of 1,280 μg/ml, 640 μg/ml, or 320 μg/ml in 50% DMSO (dimethyl sulfoxide). Serial two-fold dilutions were then prepared in 50% DMSO (the working concentrations were 1:10 of the stock concentrations in 100 μl culture suspensions). The filled microtitre plates were sealed in plastic bags and incubated at 35° C. for 24 hr in an ambient air incubator with shaking at 250 RPM. MIC values were determined as the lowest concentration where complete inhibition of the visible bacterial growth was observed by the unaided eye and confirmed by the measurement of the optical density (OD600).

[2] = test system: Enterococcus faecalis (ATCC-51299); test: MIC by microdilution against Enterococcus faecalis ATCC-51299; type: cell-based; details: unit not given in Table 4 (Table 3, same method: μg/ml)
Method: as §1, §2, §3, §4

[3] = test system: Enterococcus faecium (ATCC-51559); test: MIC by microdilution against Enterococcus faecium; type: cell-based; details: unit not given in Table 4 (Table 3, same method: μg/ml)
Method: as §1, §2, §3, §4

[4] = test system: Staphylococcus epidermidis (ATCC-35983); test: MIC by microdilution against Staphylococcus epidermidis; type: cell-based; details: unit not given in Table 4 (Table 3, same method: μg/ml)
Method: as §1, §2, §3, §4

[5] = test system: Enterococcus faecalis (ATCC-29212); test: MIC by microdilution against Enterococcus faecalis ATCC-29212; type: cell-based; details: unit not given in Table 4 (Table 3, same method: μg/ml)
Method: as §1, §2, §3, §4

[6] = type: in vivo; details: mice; injected 200 mg/kg per day
Method: In vivo acute toxicity tests were conducted using compounds 1, 2, 3 and 4. Mice were injected with each of the above compounds at a concentration of 200 mg/kg per day.

[7] = test system: Methicillin-Resistant Staphylococcus aureus (MRSA), CMRSA-1B; test: MIC by sequential macrodilution (tube) broth method against MRSA; type: cell-based; design: key: (+): Positive visual bacterial growth; (−): Negative visual bacterial growth; details: 37° C. overnight
Method: (Nat. Committee for Clinical Laboratory Standards. Document M7-A5 2000, 20; 1-25). Bacterial suspensions containing 5×10^5 colony-forming units (CFU) were incubated with serial two-fold dilutions of each drug at 37° C. overnight, and growth was monitored visually. The range of MIC values among the triaryl-imidazole derivatives was 12.5-50 μg/ml.

[8] = test system: multi-drug resistant Staphylococcus aureus (CMRSA-1B); test: Bactericidal effect against MRSA (CFU plating on TSA); type: cell-based; details: overnight with compound, plated on TSA, CFU count (FIG. 1)
Method: Serial dilutions of liquid cultures were incubated with the compounds at 37° C. overnight and then plated on Tryptic Soy Agar (TSA) plates. After incubation for 17 hours at 37° C., the number of live bacteria was calculated from the number of colonies grown per milliliter of culture and expressed as colony-forming units (CFU).

[9] = test system: MRSA-1B387; test: In vivo inhibition of MRSA, acute infection in immunosuppressed CB17-SCID mice; design: species or system Staphylococcus aureus; details: 5×10^6 MRSA-1B387 in 5% mucin, 50 mg/kg I.P. immediately and 3 hours after inoculation
Method: Triaryl-imidazole compounds were tested in vivo for antibacterial activity against MRSA in a model of acute infection using immunosuppressed mice. Suspensions of 400 μL containing 5×10^6 MRSA-1B387 bacteria in 5% mucin were injected into groups of 5-10 female, 8-14 weeks CB17-SCID mice. Under these conditions bacterial infection produced 80-100% lethality in less than 48 hours. Each group of inoculated mice was treated with 50 mg/kg of the respective compound intraperitoneally (I.P.) immediately and 3 hours after bacterial inoculation.

[10] = test system: MRSA 1B-387; test: In vivo anti-bacterial activity, ICR mice inoculated I.P. with MRSA, oral treatment; details: Staphylococcus aureus
Method: For in vivo studies, groups of 5-10 female ICR mice (6-7 weeks) were inoculated intraperitonially with 3-8×10^7 CFU MRSA 1B-387 per mouse in 400 μl of 5% mucin. The test compounds at concentrations of 50 or 100 mg/kg were administered orally immediately after the bacterial inoculation and again 3 hours later. The selected dosages were administered twice daily throughout the experiment. The efficacy of the treatment was evaluated by comparison of mortality between the experimental and control groups (Table 5).

[11] = test system: MRSA 1B-387; test: as above; details: Staphylococcus aureus; remark: listed apart in the source
[12] = against all 8 strains of S. aureus tested except where indicated, microdilution, Ca-MHB, 35° C., 24 hr, read-out: MIC

| MIC [1, 12] [µg/mL] | melting point [°C] | SMILES | MIC [2] | MIC [3] | MIC [4] | MIC [5] | Survival (%) [9] [%] | also measured |
| --- | --- | --- | --- | --- | --- | --- | --- | --- |
| 4 (≈ 9.56 µM) | 165 to 167 | Cc1[nH]c2ccccc2c1-c1nc(-c2ccc(Cl)cc2)c(-c2ccc(Cl)cc2)[nH]1 [Compound 19] | 8 | 8 | 4 | 8 |  |  |
| > 128 | 155 to 158 | Brc1ccc2[nH]cc(-c3nc(-c4ccc(-c5ccccc5)cc4)c(-c4ccc(-c5ccccc5)cc4)[nH]3)c2c1 [Compound 41] |  |  |  |  |  |  |
|  |  | Brc1ccc2[nH]cc(-c3nc4c5ccccc5c5ccccc5c4[nH]3)c2c1 [Compound 45] |  |  |  |  |  | MIC ([1]; 24 h): 0.5 µg/mL (≈ 1.21 µM); responders at 100 mg/kg [10]: 10%; responders at 100 mg/kg ([10]; read-out: Survival %): 20%; responders at 200 mg/kg [11]: 40%; responders at 200 mg/kg ([11]; read-out: Survival %): 40% |
|  |  | CN[C@H](CC(C)C)C(=O)N[C@H]1C(=O)N[C@@H](CC(N)=O)C(=O)N[C@H]2C(=O)N[C@H]3C(=O)N[C@H](C(=O)N[C@H](C(=O)O)c4cc(O)cc(O)c4-c4cc3ccc4O)[C@H](O)c3ccc(c(Cl)c3)Oc3cc2cc(c3O[C@@H]2O[C@H](CO)[C@@H](O)[C@H](O)[C@H]2O[C@H]2C[C@](C)(N)[C@H](O)[C@H](C)O2)Oc2ccc(cc2Cl)[C@H]1O [Vancomycin, reference compound] | 32 | >128 | 2 | 4 | 100 |  |

| SMILES | MIC [1, 12] [µg/mL] | melting point [°C] | MIC [2] | MIC [3] | MIC [4] | MIC [5] | Survival (%) [9] [%] | also measured |
| --- | --- | --- | --- | --- | --- | --- | --- | --- |
| Cc1[nH]c2ccccc2c1-c1nc(-c2ccccc2)c(-c2ccccc2)[nH]1 [Compound 2] | 8 to 16 (≈ 22.9 to 45.8 µM) |  | 16 | 16 | 16 | 16 | 80 | acute toxicity (symptoms of sickness, total weight, organ weight and appearance) [6]: no toxic effects; visual bacterial growth ([7]; Conc. 3.12 μg/ml): +; visual bacterial growth ([7]; Conc. 6.25 μg/ml): +; visual bacterial growth ([7]; Conc. 12.50 μg/ml): −; visual bacterial growth ([7]; Conc. 25.00 μg/ml): −; visual bacterial growth ([7]; Conc. 50.00 μg/ml): −; visual bacterial growth ([7]; Conc. 100.00 μg/ml): −; bactericidal or bacteriostatic effect at the corresponding MIC [8]: bactericidal effect |

— patent US7884120B2, “2,4,5-trisubstituted imidazoles and their use as anti-microbial agents” (Lorus Therapeutics Inc., priority 2002, dated 2011)
